Test results reported in US7094869B2, “Low molecular weight peptidomimetic growth hormone secretagogues” (Genentech, Inc., priority 1994, dated 2006).
Read-outs that look alike come from different tables or passages of the source.

Experiments:
[1] = target: rat pituitary cells (Rattus norvegicus, UniProt O08725)
Procedure, shortened: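 Primary rat anterior pituitary cells, cultured three days in DME low glucose/10% FBS, were washed, pre-incubated twice for 15 min, then challenged 15 min with test compounds (DMSO ≤0.1%) at 37 °C. Released GH was measured by two-site ELISA; EC50 came from 4-parameter fits, mean of three to four independent determinations.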

[2] = Combination GHRP and IGF-1 treatment of obese Zucker Diabetic Fatty (ZDF) rats; format: in vivo, rat
Experimental: Ten lean ZDF rats served as an additional control group.
This GHRP was given by sc. injection twice daily, each dose of 100 μl therefore containing 50 μg/injection or 100 μg/day.
Recombinant human IGF-1 (rhIGF-1) at 13.8 mg/ml in acetate buffer was loaded into osmotic minipumps (Alza, Palo Alto, model 2ML4, pump rate 2.29 μl/hr for 28 days, fill volume 2064 μl). Other pumps were filled with acetate buffer. […] The delivered dose of rhIGF-1 was therefore 758 μg/day. Recombinant human growth hormone (rhGH, Lot R9092AX, Genentech Inc.) was diluted in sterile water to 2.5 g/l and a 100 μl injection given twice daily (250 μg/injection, or 500 μg/day).
The next day the osmotic pumps were inserted into rats. […] All rats not receiving rhIGF-1 containing pumps were implanted with pumps delivering the acetate buffer excipient.
On day 24 blood was withdrawn after a 4 hour fast and 1.5 U/kg of regular insulin was injected i.p. and a second blood sample taken 30 minutes later. The rats were then sacrificed using carbon dioxide, bled from the heart, and organs taken. Serum glucose was measured by standard automated procedures.
Data are presented as mean±standard error (SE) of the mean with 8 rats per group.

Chain of rat pituitary cells (O08725 whole entry): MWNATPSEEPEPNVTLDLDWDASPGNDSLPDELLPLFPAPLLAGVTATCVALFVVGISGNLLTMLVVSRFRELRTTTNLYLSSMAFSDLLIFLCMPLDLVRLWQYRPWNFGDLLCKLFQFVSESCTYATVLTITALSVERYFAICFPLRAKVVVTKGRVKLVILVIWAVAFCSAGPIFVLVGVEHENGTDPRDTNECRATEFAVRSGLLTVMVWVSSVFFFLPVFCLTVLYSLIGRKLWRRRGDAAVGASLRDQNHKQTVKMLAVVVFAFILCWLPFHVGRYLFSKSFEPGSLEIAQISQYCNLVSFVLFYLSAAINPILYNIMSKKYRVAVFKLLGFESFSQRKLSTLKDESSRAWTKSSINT

NCCCC[C@H](NC(=O)[C@H](Cc1ccccc1)NC(=O)[C@@H](Cc1ccc2ccccc2c1)NC(=O)[C@@H](Cc1ccc2ccccc2c1)NC(=O)C1CCNCC1)C(N)=O [(inip) b b F K amide, (inip)-DβNal-DβNal-Phe-Lys-amide]
concentration at which GH release is significantly (P<0.05) increased ([1]; 15 min exposure): 0.3 nM
concentration by which GH release reaches a plateau ([1]; 15 min exposure): 1 nM
fold more potent than GHRP-6 ([1]; ratio of pit cell EC50s): over 30 fold
EC50 ([1]; read-out: EC50 of the representative GH dose response, single representative experiment, 15 min exposure): 0.16 nM
EC50 ([1]; read-out: mean EC50, mean ± SE of independent EC50s): 0.18 ± 0.04 nM
body weight gain ([2]; Day 2, obese ZDF male rats, GHRP 100 μg/d sc injection, rhIGF-1 758 μg/d pump, rhGH 500 μg/d): 18.3 ± 1.0 g
effect on insulin sensitivity (diabetogenic effect) ([2]; rat, in vivo): greatly reduced effect on insulin sensitivity (diabetogenic effect) than rhGH
fasting blood glucose ([2]; rat, in vivo): 386±63 mg %
serum insulin ([2]; rat, in vivo): 39 ± 6 ng/mL
serum IGF-1 concentrations (either mode of delivery): not significantly affected
thymus weight (high dose infusion (100 μg/day)): 0.25 ± 0.03 g
epiphyseal plate width (high dose injections): 191±8 μm
heart weight (high dose injections): 1.15 ± 0.10 g
thymus weight (high dose injections): 0.33 ± 0.02 g
eviscerated and skinned carcass weight (high dose injections (50 μg 2 times a day)): 152.4 ± 2.5 g
weight gain (in 14 days, FIG. 20): 36 ± 3 g
cartilage growth (epiphyseal plate width) (infusions): did not significantly increase cartilage growth
skin weight compared to control (injections and low dose infusion): heavier
soleus muscle, kidney and liver weight (injections or infusions, 14 days): unaffected
epiphyseal plate width (low dose injections): 160±11 μm
eviscerated and skinned carcass weight (low dose injections (10 μg 2 times a day)): 152.8 ± 2.8 g
weight gain (twice daily injections of 10 μg, adult female rats): 30 gram
